Assay results published in patent publication US9725490B2, “ERAP1-derived peptide and use thereof” (TOKUSHIMA UNIVERSITY, priority 2011, dated 2017).

What was measured:
Assay type in all cases: cell-based, human
[1] = system: transcriptional activity of ERE-ERα; experiment: ERE-luciferase reporter assay in KPL-3C cells; conditions: 10 nM E2 24 hours
Description: KPL-3C cells temporarily transfected with an ERE-luciferase reporter vector were treated with the ERAP1-peptide in the concentrations shown in the figure. Then, immediately, the cells were stimulated with 10 nM E2 for 24 hours. TAM indicates the tamoxifen treatment. […] KPL-3C cells were treated for 24 hours with the ERAP1-peptide and/or E2. Then, the nuclear fraction was immunoprecipitated with anti-ERα antibody or an anti-PHB2 antibody.

[2] = system: ERα interaction with IGF-1Rβ, Shc, PI3K; Akt and MAPK phosphorylation; experiment: Non-genomic activation route, immunoprecipitation/immunoblotting, MCF-7
Description: MCF-7 cells were treated with the ERAP1-peptide. Then, immediately, the cells were stimulated with 10 nM E2 for 24 hours. Then, the cytoplasm fraction was immunoprecipitated with anti-ERα antibody. […] MCF-7 cells were treated with the ERAP1-peptide. Then, immediately, the cells were stimulated with 10 nM E2 for 24 hours. Then the cytoplasm fraction was immunoprecipitated with anti-ERα antibody or anti-PHB2 antibody.
FIG. 10-2 is a diagram illustrating that the ERAP1-peptide regulates E2-induced non-genomic activation route via IGF-1Rβ and Shc. […] BT-474 cells were treated with the ERAP1-peptide and/or E2 for 24 hours. Then, the cytoplasm fraction was immunoprecipitated with anti-ERα antibody.
As described in the item of “Western blotting analysis”, the cells were lysed with a 0.1% NP-40 lysis buffer. The cell lysate was precleaned using normal IgG and rec-Protein G Sepharose 4B (Zymed, San Francisco, Calif., USA) at 4° C. for 3 hours. After centrifuge separation, the supernatant was incubated in the presence of an anti-ERAP1 antibody, an anti-PHB2 antibody and an anti-ERα antibody at 4° C. for 6 hours. Then, the supernatant was incubated in the presence of rec-Protein G Sepharose 4B at 4° C. for 1 hour, to precipitate an antigen-antibody complex. The immunoprecipitated protein complex was washed with a lysis buffer three times, and separated by SDS-PAGE. Then, Western blotting analysis was performed by the method described previously (Kim J W, et al. Cancer Sci. 2009; 100: 1468-78.).

[3] = system: ERα interaction with IGF-1Rβ and Shc; experiment: E2-independent non-genomic activation route via IGF-1Rβ, MCF-7; conditions: 10 μM, 24 hours, cytoplasm fraction
Description: FIG. 15 is a diagram illustrating the effects of the ERAP1-peptide on E2-independent cell functions. […] MCF-7 cells were treated with the ERAP1-peptide in each concentration (1, 3, 5 and 10 μM) or 10 nM tamoxifen as a positive control for 24 hours. […] MCF-7 cells were stimulated with 10 μM ERAP1-peptide treatment only, 10 nM E2 treatment only, or 10 μM ERAP1-peptide treatment and immediately 10 nM E2 for 24 hours, and the cytoplasm fraction was isolated from each of the treated cells. Then, the cytoplasm fraction was immunoprecipitated with anti-ERα antibody. Furthermore, with respect to the obtained sample, Western blotting analysis was performed using the antibodies shown in the figure.
MCF-7 cells were subjected to a treatment of 10 μM ERAP1-peptide alone, stimulation with 10 nM E2 alone, and co-stimulation with the ERAP1 peptide and E2, respectively, and after 24 hours, the cytoplasm fraction was isolated from the cells of each treatment. The cytoplasm fraction was precleaned using normal IgG and rec-Protein G Sepharose 4B (Zymed, San Francisco, Calif., USA) at 4° C. for 3 hours, and centrifuged, and then the supernatant was incubated in the presence of anti-ERα antibody at 4° C. for 6 hours. Then, the supernatant was added with rec-Protein G Sepharose 4B and incubated at 4° C. for 1 hour whereby to precipitate an antigen-antibody complex. […]

PHB2/REA phosphorylation = experiment: Phosphorylation of PHB2 bound to ERα, nuclear fraction; conditions: MCF-7, 5 μM peptide, 1 μM E2 24 hours
Description: FIG. 22 is a diagram illustrating that phosphorylation of PHB2 serine regulates the transcriptional activity of ERα. […] MCF-7 cells and HCC1395 cells were treated with 5 μM ERAP1-peptide. Then, immediately, the cells were stimulated with 1 μM E2 for 24 hours. Then, the nuclear fraction of each cell was immunoprecipitated with anti-ERα antibody. Furthermore, with respect to the obtained sample, immunoblotting analysis was performed using the antibodies shown in the figure and the phosphorylation antibody. […] COS-7 cells temporarily transfected with PHB2 (or PHB2 mutation vectors, S39A and S39G), ERα, ERE-luciferase vector, and each plasmid of pRL-TK as an internal standard were stimulated with 1 μM E2 for 48 hours.
MCF-7 cells and HCC1395 cells were treated with 5 μM ERAP1-peptide. Then, immediately the cells were stimulated with 1 μM E2 for 24 hours. Then, the nuclear fraction was isolated from the cells of each treatment. The nuclear fraction was precleaned at 4° C. for 3 hours using Normal IgG and rec-Protein G Sepharose 4B (Zymed, San Francisco, Calif., USA), and centrifuged, and then the supernatant was incubated in the presence of an anti-ERα antibody at 4° C. for 6 hours. Then, the supernatant was added with rec-Protein G Sepharose 4B and incubated at 4° C. for 1 hour to precipitate a antigen-antibody complex. […]

[4] = system: generation of ROS in MCF-7 cells; experiment: ROS production in the mitochondria, DHR123 flow cytometry
Description: FIG. 41-2 is a diagram illustrating that ROS production in the mitochondria by E2 stimulation is induced through ERAP1. […] MCF-7 cells, and MCF-7 cells suppressed for expression of ERAP1, and HCC1395 cells were treated with 10 μM DHR123 for 15 minutes. The cells were washed, and then stimulated with 10 μM ERAP1-peptide and 10 nM E2 for 24 hours, and analyzed by flow cytometry. Cells treated with 1 mM H2O2 for 24 hours were used as a positive control. The data are representative examples of two independent experiments.

CSCC[C@H](NC(=O)[C@H](CCC(N)=O)NC(=O)[C@H](CCCNC(=N)N)NC(=O)[C@H](CCCNC(=N)N)NC(=O)[C@H](CCCNC(=N)N)NC(=O)[C@H](CCCNC(=N)N)NC(=O)[C@H](CCCNC(=N)N)NC(=O)[C@H](CCCNC(=N)N)NC(=O)[C@H](CCCNC(=N)N)NC(=O)[C@H](CCCNC(=N)N)NC(=O)[C@H](CCCNC(=N)N)NC(=O)[C@H](CCCNC(=N)N)NC(=O)[C@@H](N)CCCNC(=N)N)C(=O)N[C@@H](CC(C)C)C(=O)N[C@@H](CO)C(=O)N[C@@H](CC(=O)O)C(=O)N[C@@H](CC(C)C)C(=O)N[C@H](C(=O)N[C@@H](CC(C)C)C(=O)N[C@@H](CCC(N)=O)C(=O)N[C@@H](CC(C)C)C(=O)N[C@@H](CCCNC(=N)N)C(=O)N[C@@H](CCC(N)=O)C(=O)N[C@@H](CCCNC(=N)N)C(=O)O)[C@@H](C)O [ERAP1-peptide] was tested, and the “transcriptional activity of ERE-ERα” value [1] was “suppression for the transcriptional activity of ERE-ERα was recognized”, the “binding of ERα and PI3K” value ([2]; cytoplasm fraction, 24 hours) was “inhibit the binding of ERα and PI3K” and the “binding of ERα and Shc and of ERα and IGF-1Rβ” value ([2]; cytoplasm fraction, 24 hours) was “inhibited the binding of ERα and Shc and the binding of ERα and IGF-1Rβ”. For the same compound, the “phosphorylation of Ser473 of Akt and phosphorylation of MAPK” value ([2]; time course to 24 hours) was “inhibited respectively within 3 hours after addition of the ERAP1-peptide, and the suppression was maintained even after 24 hours”, the “interaction of IGF-1Rβ and Shc with ERα, absence of E2” value [3] was “each interaction of IGF-1Rβ and Shc, and ERα was inhibited” and the “phosphorylation of PHB2/REA bound to ERα in the nucleus” value (PHB2/REA phosphorylation) was “phosphorylations of the tyrosine and serine residues in the binding-recognized PHB2/REA were recognized”. The “generation of ROS” value ([4]; MCF-7 in which expression of ERAP1 was suppressed) was “had no influence on the generation of ROS” and the “generation of ROS” value ([4]; MCF-7 transfected with control siRNA, 10 μM, E2 24 hours) was “generation of ROS was remarkably suppressed”.
